This passage reports TGI and GI50 results from PubChem BioAssay (NCI).

Common to all, as to assay: NCI anticancer screen, dose series, 48 h
Assay [1] has as its system NCI-H522 lung.
Assay [2] has as its system HOP-92 NSCLC.
Assay [3] relates to HCT-15 colon.
Assay [4] has as its system SK-OV-3 ovarian.
Assay [5] concerns OVCAR-8 ovarian.
For assay [6], the system named is MDA-MB-231 breast.
The test system of assay [7] is SK-MEL-28 melanoma.
The subject of assay [8] is PC-3 prostate.
Assay [9] concerns UO-31 renal.
Assay [10] deals with BT-549 breast.

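All cell lines were grown in 96-well plates and treated with compound for 48 hours. GI50: concentration for 50% inhibition of growth. TGI is the concentration that stops growth completely.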 Where a SMILES comes first, the peptide text is derived from it. The star is where a group is joined. Boc = CC(C)(C)OC(=O)* Where only a bound is given, the exact number is not on record here.

In the case of `CN(C)CCCOC(=O)C(O)(Cc1ccccc1)C1CC1` (stereo not given), the TGI in assay [1], in assay [2], in assay [3], in assay [4], in assay [5] and in assay [6] was above 100 µM in each case. Further, the TGI in assay [7] and in assay [8] was above 100 µM in each case.

Regarding `NS(=O)(=O)c1ccc(/C=C/c2cccc(O)c2)cc1`, the GI50 in assay [1] was 12.2 µM; in [2], 17.4 µM; in assay [3], 22.8 µM; in assay [5], 25.2 µM. Further, the TGI was 44.4 µM in assay [1]; 65.9 µM in assay [2]; 64.2 µM in [9]; above 100 µM in [3]; above 100 µM in assay [4]; 58.7 µM in assay [5]. The TGI in assay [6], in assay [7] and in [8] was above 100 µM each time.

Take `Clc1ccc(-c2nc(-c3ccc(Cl)cc3)[s+]s2)cc1`: the TGI in [1], in [9], in assay [3], in [4], in assay [10] and in assay [5] was above 100 µM each time. Besides, the TGI in assay [6], in [7] and in [8] was above 100 µM each time.

With `O=C1CC(c2cccc(Cl)c2)n2cccc21` (stereo not given), the TGI in assay [2], in [9], in assay [3], in assay [4], in assay [5] and in assay [6] was above 100 µM throughout. In addition, the TGI in assay [7] and in assay [8] was above 100 µM each time.

As for `O=C(c1cccs1)N(C(=O)N1CCC(c2ccccc2)CC1)c1ccccc1`, the TGI in [9] is 76.9 µM; in assay [3] it was above 100 µM; in [4], above 100 µM; in [10] it was above 100 µM; in [5], above 100 µM; in assay [6], above 100 µM. Also, the TGI in assay [7] and in assay [8] was above 100 µM throughout.

Take `CCCCCCCCCC[C@@H](O)[C@@H]1CC[C@@H]([C@@H]2CC[C@@H]([C@@H](O)CCCCCCCCCCC(O)CC3=CC(C)OC3=O)O2)O1` (stereo not given in full): the TGI in assay [1], in [9], in assay [3], in assay [4], in assay [5] and in [6] was above 10 µM each time. The TGI in assay [7] and in [8] was above 10 µM in each case.

On to `COC(=O)CC1C2CC3C(C2=O)C13` (stereo not given), for which the TGI in assay [1], in assay [2], in assay [9], in [3], in [4] and in assay [5] was above 100 µM throughout. Also, the TGI in [6], in assay [7] and in assay [8] was above 100 µM each time.

Regarding `CC(Nc1cc(Cl)cc(Cl)c1)c1ccncc1` (stereo not given), the TGI in [1] is 32.6 µM; in assay [9], 27.3 µM; in [3], above 100 µM; in [10], 52.7 µM; in [5] it was 43 µM; in assay [7], 97.8 µM. This compound had a TGI in [8] of 36.7 µM.

In the case of `CCCCCCCCOCC1S(=O)(=O)OCCOS1(=O)=O`, the TGI in assay [1], in [2], in assay [9], in assay [3], in assay [4] and in [5] was above 100 µM throughout. Further, the TGI in assay [6], in assay [7] and in [8] was above 100 µM each time.

Consider `CC(NC(=O)C(NC(=O)OC(C)(C)C)C(C)C)C(=O)NCC(=O)O` (stereo not drawn) (Boc-Val-Ala-Gly-OH; configuration not given here), for which the TGI in assay [1], in [2], in assay [9], in assay [3], in assay [4] and in assay [10] was above 100 µM throughout. Also, the TGI in [5], in assay [7] and in [8] was above 100 µM in each case.

`COc1ccc(-c2cc(-c3ccc(Nc4ccnc5cc(Cl)ccc45)cc3)nc(N)c2C#N)c2ccccc12`: the TGI in assay [1], in assay [9], in [3], in assay [10], in assay [5] and in assay [6] was above 100 µM each time. For the same compound, the TGI in [7] and in assay [8] was above 100 µM in each case.

As to `C=C(Br)CN(C#N)CC(=C)Br`, the TGI in assay [1], in assay [9], in [3], in [4], in [5] and in [6] was above 100 µM in each case. Moreover, the TGI in assay [7] and in [8] was above 100 µM each time.

Consider `O=C(c1ccco1)N(C(=S)N1CCN(c2ccccc2)CC1)c1ccccc1`, for which the TGI in assay [1], in [2], in [9], in assay [3], in [4] and in assay [5] was above 100 µM each time. In assay [7], this compound gave a TGI above 100 µM.

For the compound `CC(NCCS(=O)(=O)O)C(=O)O` (stereo not given), the TGI in assay [1], in assay [2], in [9], in assay [3], in assay [4] and in [5] was above 100 µM throughout. The same compound yielded a TGI in [7] above 100 µM.

In the case of `CC1(C)CCOC(=O)C(Cl)CC1Cl` (stereo not given), the TGI in [1], in assay [3], in [4], in [5], in [6] and in [7] was above 100 µM throughout. This compound had a TGI in [8] above 100 µM.
